Values joined by “and” are separate entries in the source; they are usually repeats but may differ in a detail not shown here. Identical values can stand only once.
Assays:
[1] = test system: voltage-dependent calcium channels (cerebral cortex synaptosome); assay: Measurement of voltage-dependent calcium channel activity by the use of a fluorescent pigment (fura 2); assay type: cell-based; settings: rat cerebral cortex synaptosome, fura 2, KCl stimulation, compound incubated 10 minutes
In short: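 Synaptosomes were prepared from rat cerebral cortex by sucrose homogenisation and 0.8 M sucrose gradient centrifugation. They were loaded with fura-2/AM by mixing with an equal volume of 4 μM loading solution for 40 min at room temperature. Verapamil hydrochloride served as the reference compound.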

[2] = test system: glutamic acid release from rat cerebral cortex slices; assay: Inhibitory activity on glutamic acid release (cerebral cortex slices, high-conc. KCl); assay type: cell-based; settings: Rattus norvegicus, glutamic acid release induced with 50 mM KCl, HPLC
Experimental: Inhibitory Activity on Glutamic Acid Release
Cerebral cortexes were isolated from SD strain male rats (8-week-old) and used to prepare 300 μm×300 μm slices by use of a slice chopper. The prepared slices were incubated at 37° C. for 30 minutes in solution C (120 mM NaCl, 4 mM KCl, 10 mM MgSO4, 16 mM NaHCO3, 10 mM glucose, 1 mM NaH2PO4, 10 mM HEPES-NaOH pH 7.4) in the presence of 95% O2/5% CO2. Thereafter, solution C was exchanged with fresh one, followed by further incubation for 30 minutes.
The cerebral cortex slices were incubated in a 24-wells plate for cell culture according to a multi-well method (Brain Res., 402, 255-263, 1987), and the release of glutamic acid was induced with 50 mM KCl. Solution D (120 mM NaCl, 4 mM KCl, 1.2 mM CaCl2, 1 mM MgSO4, 16 mM NaHCO3, 10 mM glucose, 1 mM NaH2PO4, 10 mM HEPES-NaOH pH 7.4) was aerated with 95% O2/5% CO2 and kept at 37° C. and used in this experiment. 50 mM KCl containing the same total amount of K^+ and Na^+ was prepared. Slices corresponding to 1 to 2 mg protein were placed on an upper cup provided with a mesh at the bottom, and 1.3 ml solution C or 50 mM KCl solution was introduced into a lower well, and the upper cup was transferred to a new well. 20 minutes before and 5 minutes after reaction was intiated, the test compound was added to solution D or 50 mM KCl.
Glutamic acid was quantified by HPLC using fluorescent etor (Ex. 330 nm Em. […]). The eluting solvent used was prepared by diluting 150 ml sodium citrate buffer for automatic amino acid analysis (Wako Pure Chemical Industries) 10-fold with distilled water, then adding MgCl2 thereto at the final concentration of 50 mM, and further diluting it twice with acetonitrile. The flow rate was 2.0 ml/min. The column used was Asahipak (ES-502N Denko, K. K.). The glutamic acid was converted into a derivative by addition, to 50 μl sample, of 50 μl deriving agent (10 mg o-phthalaldehyde/500 μl MeOH, 10 μl b-mercaptopropionic acid, 0.15 M sodium borate buffer pH 9.5, 100 μl) followed by stirring (Neuroscience Lett., 96, 202-206, 1989).

[3] = test system: rat model with local cerebral ischemia; settings: literature reports (13, 14, 15); cited from earlier work
formalin test = settings: administered into spinal cord, literature reports (1, 2); cited from earlier work
[4] = test system: rat model with occlusion in the middle cerebral artery; assay: Effect (II) of reducing infarct volume in a rat model with occlusion in the middle cerebral artery (permanent occlusion); assay type: in vivo
Experimental: Effect (II) of Reducing Infarct volume in a Rat Model with Occlusion in the Middle Cerebral Artery
The typical example of the compound of the present invention (the compound in Example 1) was compared with compounds disclosed in JP 8-508037-A (WO 94/25469, U.S. Pat. No. 5,750,525), which have affinity for AMPA receptors and is effective against cellular necrosis after ischemia in anoxia and hypocalcemia.
The compound of the present invention was dissolved in physiological saline to be adjusted to a dosage of 10 or 20 mg/kg/h just before use.
The control compound was dissolved in physiological saline to be adjusted to a dosage of 3 mg/kg/h just before use.
Occlusion in the middle cerebral artery was conducted according to the method described above. However, the middle cerebral artery was permanently occluded without removing the nylon embolus.
Two hours after the middle cerebral artery was occluded, a syringe containing the medium or the sample (10 or 20 mg/kg/h) was attached to a catheter for intravenous administration, and half (0.31 ml) of the dosage to be infused for 1 hour was intravenously administered for 1 minute. Thereafter, the medium or the sample was administered continuously for 6 hours at a rate of 0.616 ml/h by the use of a syringe pump for infusion. During administration and for 2 hours after administration was finished, the temperature of the rectum was maintained in the range of 37.0 to 38.5° C. in a system for controlling body temperature. After the body temperature control was finished, the animal was returned to a cage and maintained for 1 day in a breeding room.
Two hours after the middle cerebral artery was occluded, a syringe containing the medium or the sample (3 mg/kg/h) was attached to a catheter for intravenous administration, and the medium or the sample was administered continuously for 6 hours at a rate of 0.616 ml/h by means of the syringe pump for infusion. During administration and for 2 hours after administration was finished, the temperature of the rectum was maintained in the range of 37.0 to 38.5° C. in the system for controlling body temperature. After the body temperature control was finished, the animal was returned to a cage and maintained for 1 day in a breeding room.
The middle cerebral artery was permanently occluded by the nylon embolus, and the infarct volume was measured 24 hours after the occlusion was conducted.

mice in a formalin test = assay: Antalgic effect (II) on mice in a formalin test (comparison with morphine and indomethacin); assay type: in vivo
Experimental: Antalgic Effect (II) on Mice in a Formalin Test
The typical example of the compound of the present invention (the compound in Example 1) was compared with morphine and indomethacin in the same manner as in Pharmacological Experimental Example 5 above.
20.4 mg of the compound of the present invention was weighed, and 10.2 ml of 5.28% mannitol was added thereto to prepare 2 mg/ml (20 mg/kg) solution. Then, 3.8 ml of 5.28% mannitol was added to 3.8 ml of the 2 mg/ml solution to prepare 1 mg/ml (10 mg/kg) solution. Finally, 2.5 ml of 5.28% mannitol was added to 2.5 ml of the 1 mg/ml solution to prepare 0.5 mg/ml (5 mg/kg) solution. The test compound was weighed and prepared on the day when the experiment was conducted.
b-1) Morphine 17.0 mg of morphine purchased as a reagent was weighed, and 5.67 ml physiological saline was added thereto to form 3 mg/ml (30 mg/kg) solution. Then, 2.6 ml physiological saline was added to 1.3 ml of the 3 mg/ml solution to prepare 1 mg/ml (10 mg/kg) solution. Finally, 2.1 ml physiological saline was added to 0.9 ml of the 1 mg/ml solution to prepare 0.3 mg/ml (3 mg/kg) solution. The test compound was weighed and prepared on the day when the experiment was conducted.
12.9 mg of indomethacin purchased as a reagent was weighed, and 12.9 ml of 0.5% methyl cellulose (MC) was added thereto to form 1 mg/ml (10 mg/kg) suspension. Then, 2.24 ml of 0.5% MC was added to 0.96 ml of the 1 mg/ml suspension to prepare 0.3 mg/ml (3 mg/kg) suspension. Finally, 1.6 ml of 0.5% MC was added to 0.8 ml of the 0.3 mg/ml suspension to prepare 0.1 mg/ml (1 mg/kg) suspension. The test compound was weighed and prepared on the day when the experiment was conducted.
The treatment group by the compound of the present invention consisted of 4 groups in total, that is, a control group, a 5 mg/kg compound administration group, a 10 mg/kg compound administration group, and a 20 mg/kg compound administration group, and each group consisted of 5 animals.
The control group was given 0.1 ml of 5.28% mannitol per 10 g of the body weight via the tail vein. The compound of the present invention was administered via the tail vein at each concentration (0.5 mg/ml, 1 mg/ml, and 2 mg/ml) in an volume of 0.1 ml per 10 g of the body weight into the 5 mg/kg group, 10 mg/kg group and 20 mg/kg group, respectively.
The treatment group by morphine consisted of 4 groups in total, that is, a control group, a 3 mg/kg morphine administration group, a 10 mg/kg morphine administration group, and a 30 mg/kg morphine administration group, and each group consisted of 5 animals.
The control group was orally given 0.1 ml of physiological saline per 10 g of the body weight. Morphine was orally administered at each concentration (0.3 mg/ml, 1 mg/ml, and 3 mg/ml) in a volume of 0.1 ml per 10 g of the body weight into the 3 mg/kg group, 10 mg/kg group and 30 mg/kg group, respectively.
The treatment group by indomethacin consisted of 4 groups in total, that is, a control group, a 1 mg/kg indomethacin administration group, a 3 mg/kg indomethacin administration group, and a 10 mg/kg indomethacin administration group, and each group consisted of 5 animals.
The control group was orally given 0.1 ml of 0.5% MC per 10 g of the body weight. Indomethacin was orally administered at each concentration (0.1 mg/ml, […], and 1 mg/ml) in a volume of 0.1 ml per 10 g of the body weight into the 1 mg/kg group, 3 mg/kg group and 10 mg/kg group, respectively.
5.28% mannitol was administered via the tail vein into each group given the compound of the present invention or into the control group, and the animals were placed in a transparent plastic observation cage. 5 minutes later, 20 μl of 3% formalin was subcutaneously administered into the bottom of the left hind leg of each mouse. The duration of the behavior of mouse's licking the left hind leg after administration of formalin was measured for 5 minutes and used as an indication of pain. The duration was expressed in second. […]

## CC(C)C(C#N)(CCCN1CCN(CCOc2ccc(F)cc2)CC1)c1ccc(F)cc1 (stereo not drawn) [Example 24, 1-{[4-Cyano-5-methyl-4-(4-fluorophenyl)hexyl]}-4-[2-(4-fluorophenoxy)ethyl]piperazine]
[1]
  IC50: 3.9 µM
[2]
  IC50: 2.4 µM

## CC(C)C(C#N)(CCCN1CCN(CCOc2ccc(Cl)cc2)CC1)c1ccccc1 (stereo not drawn) [Example 36, 1-[(4-Cyano-5-methyl-4-phenyl)hexyl]-4-[2-(4-chlorophenoxy)ethyl]piperazine]
[1]
  IC50: 3.4 µM
[2]
  IC50: 4.2 µM

## CC(C)C(C#N)(CCCN1CCN(CCN(C)c2ccc(F)cc2)CC1)c1ccccc1 (stereo not drawn) [Example 52, 1-[(4-Cyano-5-methyl-4-phenyl)hexyl]-4-{2-[N-(4-fluorophenyl)-N-methylamino]ethyl}piperazine]
[1]
  IC50: 3.8 µM
[2]
  IC50: 2.9 µM

## CSCC[C@@H]1NC(=O)[C@H](CC(C)C)NC(=O)[C@H](CCCNC(=N)N)NC(=O)[C@H](CO)NC(=O)[C@@H]2CSSC[C@@H]3NC(=O)[C@H](CO)NC(=O)CNC(=O)[C@H]([C@@H](C)O)NC(=O)[C@H](CSSC[C@H](N)C(=O)N[C@@H](CCCCN)C(=O)NCC(=O)N[C@@H](CCCCN)C(=O)NCC(=O)N[C@@H](C)C(=O)N[C@@H](CCCCN)C(=O)N2)NC(=O)[C@H](CSSC[C@@H](C(N)=O)NC(=O)[C@H](CCCCN)NC(=O)CNC(=O)[C@H](CO)NC(=O)[C@H](CCCNC(=N)N)NC3=O)NC(=O)[C@H](CC(=O)O)NC(=O)[C@H](Cc2ccc(O)cc2)NC1=O [SNX-111]
[3]
  protective action on nerve cells: serves for protection against the liberation of glutamic acid from the cerebral cortex and against the subsequent disturbance of nerve cells
Formalin test
  antalgic action: has an antalgic action

## O=c1[nH]c2cc(C(F)(F)F)c(N3CCOCC3)cc2n(CP(=O)(O)O)c1=O [control compound, {[3,4-Dihydro-7-(4-morpholinyl)-2,3-dioxo-6-(trifluoromethyl)-1-(2H)-quinoxalinyl]methyl}phosphonic acid, reference compound]
[4]; 3 mg/kg/h i.v.
  infarct volume compared with the control group: no difference from the control group
[4]; 3 mg/kg/h i.v. (table: 3 mg/kg), from two hours after occlusion, 6 hours, 24 hours after occlusion
  Infarct volume in the cerebral cortex, Mean: 284.9±10.9 mm^3 and 284.9 mm^3

## COc1ccc2c(c1)c(CC(=O)O)c(C)n2C(=O)c1ccc(Cl)cc1 [indomethacin]
Mice in a formalin test; 1 mg/kg p.o., formalin 90 minutes later
  average left hind leg-licking time, Mean: 87.8 s
Mice in a formalin test; 3 mg/kg p.o., formalin 90 minutes later
  average left hind leg-licking time, Mean: 75.8 s
Mice in a formalin test; 10 mg/kg p.o., formalin 90 minutes later
  average left hind leg-licking time, Mean: 84.0 s
Mice in a formalin test; overall conclusion of the comparison
  antalgic effect in the formalin test: does not have any effect

## CN1CC[C@]23c4c5ccc(O)c4O[C@H]2[C@@H](O)C=C[C@H]3[C@H]1C5 [morphine]
Mice in a formalin test; 3 mg/kg p.o., formalin 30 minutes later
  average left hind leg-licking time, Mean: 68.2 s
Mice in a formalin test; 10 mg/kg p.o., formalin 30 minutes later
  average left hind leg-licking time, Mean: 58.0 s
Mice in a formalin test; 30 mg/kg p.o., formalin 30 minutes later
  average left hind leg-licking time, Mean: 29.6 s

## ω-agatoxin IVA
[3]
  protective action on nerve cells: has a protective action on nerve cells

— patent US6737425B1, “N,N-substituted cyclic amine derivatives” (Eisai Co., Ltd., priority 1998, dated 2004)
